What was measured:
IL-8 promoter = test: ChIP of IL-8 promoter (histone acetylation, HDAC2 binding) in alveolar macrophages; format: cell-based, human
Protocol: For inducing corticosteroid resistance, PMs were exposed to cigarette smoke condensate (CSC, 100 μg/ml; Murty Pharmaceuticals, Lexington, Ky.) for 16 h. Exposure to S-nitrosoglutathione (GSNO, 10 μM) was limited to 4 h. […] For assessing corticosteroid responsiveness, macrophages were incubated with dexamethasone (1 μM, Sigma) for 1 h followed by LPS (100 ng/ml, Sigma) for additional 4 h.
Chromatin immunoprecipitation was performed as described previously (Hogg, J. C. & Timens, W., Annu Rev Pathol (2008)). Briefly, cells were fixed in ˜1% formaldehyde in cell growth media for 10 minutes followed by glycine fixation. Cells were then sonicated in ChIP-lysis buffer containing a protease inhibitor cocktail after incubation on ice for 30 minutes. […] sonication, the samples were spun at maximum speed for 12 minutes in a cold microcentrifuge. The supernatants were then addressed as input samples. A part of the input sample was precleared by using a 50% slurry of protein A/G beads prepared in immunoprecipitation (IP) buffer for 2 hours in the cold, following which the beads were centrifuged out and the supernatant was used for IP. Then the precleared samples were incubated with 2 μg of panacetylated histone H4 antibody (ChIP assay kit; Upstate Biotechnology) or anti-HDAC2 antibody from Santa Cruz Biotechnology. As a control, anti-rabbit IgG antibody was added for 1 hour in the cold. The protein A/G bead slurry was added to each reaction and was rotated overnight. The next day, the beads were washed extensively, and the DNA was reverse crosslinked, eluted in elution buffer, and stored at −80° C. until used for sequencing or PCR validation assays. […] This immunoprecipitated DNA was used for PCR amplification by using the specific gene (IL-8 for humans and MCP-1 for mice) promoter PCR assays. PCR primers were used for the IL-8 promoter (forward: 5′-[…]-3′ and reverse: 5′-[…]-3′) and the MCP-1 promoter (forward: 5′-[…]-3′ and reverse: 5′-[…]-3′).

glucocorticoid receptor = test: Acetylated glucocorticoid receptor levels in alveolar macrophages; format: cell-based, human; details: compared to vehicle control
Protocol: All immunoblots were performed by using protocols as described previously (Barnes, P. J., N Engl J Med 343, 269-280 (2000)). Rabbit anti-HDAC2 antibody from Santa Cruz Biotechnology (Santa Cruz, Calif.) was used at 1:500 dilutions. Rabbit anti-5-nitroso-cysteine antibody from Alpha diagnostics was used at 1:500 dilutions. Rabbit anti-nitro-tyrosine antibody from Cell Signaling Technology, was used at 1:250 dilution. Rabbit anti-ubiquitin antibody from Santa Cruz Biotechnology (Santa Cruz, Calif.) was used at 1:1000 dilutions. Rabbit anti-GR antibody from Santa Cruz Biotechnology (Santa Cruz, Calif.) was used at a dilution of 1:1000. Rabbit anti-MMP9 antibody from Sigma Aldrich was used at 1:500 dilutions. Rabbit anti-acetyl-lysine antibody from Abcam was used at 1:750 dilutions. Rabbit anti-lamin-B1 from Santa Cruz Biotechnology (Santa Cruz, Calif.) was used at 1:1000 dilutions as a loading control. The Image J program was used for densitometry analyses.

Pseudomonas aeruginosa [1] = test: Phagocytosis assay, FITC-labeled PA, alveolar macrophages; format: cell-based, human
Protocol: (§1) Human alveolar macrophages were purified from individual BAL samples by centrifugation and seeded onto 6-well tissue culture plates. After incubation for 2 h, non-adherent cells were removed and the adherent cells were incubated with R, S-sulforaphane (5 μM; LKT Laboratories, Inc., St. Paul, Minn.) and or DMSO in RPMI 1640 culture medium with 10% FBS and 1% penicillin-streptomycin (Invitrogen, Carlsbad, Calif.). After 16-20 h, adherent cells were scraped, suspended in RPMI 1640 culture media and plated onto 96-well tissue culture plates for bacterial phagocytosis and clearance assays. […] For MARCO antibody-depletion, alveolar macrophages were incubated with human anti-MARCO antibody (1 μg/ml; (Hycult, Uden, The Netherlands) for 4 hours prior to bacterial challenge.
(§2) Sputum isolates of nontypeable H. influenzae and P. aeruginosa obtained from patients with COPD at the Department of Veterans Affairs, Western New York Healthcare System were used (S. Sethi, N. Evans, B. J. Grant, T. F. Murphy, N Engl J Med 347, 465 (Aug. 15, 2002); C. S. Berenson, M. A. Garlipp, L. J. Grove, J. Maloney, S. Sethi, J Infect Dis 194, 1375 (Nov. 15, 2006); T. F. Murphy et al., Am J Respir Crit Care Med 177, 853 (Apr. 15, 2008); T. F. Murphy, A. L. Brauer, A. T. Schiffmacher, S. Sethi, Am J Respir Crit Care Med 170, 266 (Aug. 1, 2004)). For bacterial growth, H. influenzae was cultured on chocolate agar or grown in brain heart infusion broth supplemented with 20 μg/mlNAD and 10 μg/ml hemin at 35° C. in 5% CO2. P. aeruginosa was cultured on LB agar plates or in LB broth at 37° C. For FITC-labeling of bacteria, heat inactivated PA and NTHI (10^9 CFU/ml) were resuspended in 1 ml of labeling buffer (0.1 M NaHCO3, pH 9.2) and incubated with fluorescein isothiocyanate (FITC) (Sigma) under constant stiffing in the dark at room temperature for 1 h. Finally, bacteria were washed three times with PBS and dialyzed overnight against PBS. FITC-labeled bacteria were resuspended with PBS at a concentration of 10^9/ml.
(§3) Bacterial phagocytosis was quantified using a flow cytometry analysis.

Pseudomonas aeruginosa [2] = test: Clearance of bacteria in vitro by alveolar macrophages (PA); format: cell-based
Protocol: as §1, §2
(§4) After treatment, macrophages (10^5 cells) were incubated with bacteria (PA or NTHI) for 4 h. Subsequently, 100 μL of cell free culture medium was aseptically plated and cultured on tryptose blood and or chocolate agar plates at 37° C. The number of bacterial colonies was counted after 24 h.

Pseudomonas aeruginosa [3] = details: alveolar macrophages from mice exposed to CS, ex vivo
Protocol: as §4, §3
C57BL/6J mice were housed under controlled conditions for temperature and humidity, using a 12-hour light/dark cycle. At 8 weeks of age, mice were exposed to CS for (2.5 h/day for 5 days/week) for 1 week or 6 months using a machine that produces cigarette smoke (TE-10, Teague Enterprises) and reference cigarettes (2R4F) with a total suspended particle concentration of 250 mg/m^3 as previously described (T. E. Sussan et al., Proc Natl Acad Sci USA, (Dec. 22, 2008)). Following exposure to CS, mice were inoculated with PA or NTHI at a dose of 10^3 CFU in 50 μl of PBS intranasally. For sulforaphane administration (0.5 mg/mouse of R, S-sulforaphane in PBS), a nebulizer (Aerogen, Inc., Galway, Ireland) designed specifically for small animals was used.

## C[S+]([O-])CCCCN=C=S (centres unmarked) [sulforaphane]
MMP9
  secretory levels of active MMP9: significantly reduced
MMP9; biotin-switch assay
  levels of S-nitrosylated MMP9: significantly reduced
IL-8 promoter; COPD alveolar macrophages
  HDAC2 binding in the IL-8 promoter: significantly increased the levels of HDAC2 binding
IL-8 promoter; in the presence of buthionine sulfoximine
  HDAC2 binding in the IL-8 promoter: failed to increase HDAC2 binding
IL-8 promoter; sulforaphane treatment with DEX
  histone acetylation on the IL-8 promoter: concomitant reduction
IL-8 promoter; sulforaphane, baseline and after LPS
  histone acetylation in IL-8 promoter: decrease in histone acetylation
Glucocorticoid receptor
  levels of acetylated-glucocorticoid receptor: significant decrease in the levels of acetylated-glucocorticoid receptor
Pseudomonas aeruginosa [1]; COPD alveolar macrophages, compared to vehicle
  phagocytosis of FITC-labeled Pseudomonas aeruginosa: significantly enhanced phagocytosis
Pseudomonas aeruginosa [1]; Nrf2-siRNA transfected macrophages
  bacterial phagocytosis: failed to do so
Pseudomonas aeruginosa [1]; alveolar macrophages transfected with control ssRNA
  bacterial phagocytosis: enhanced bacterial phagocytosis
Pseudomonas aeruginosa [2]; COPD alveolar macrophages, compared to vehicle, 4 h with bacteria
  clearance of Pseudomonas aeruginosa (decrease in CFU in culture medium): 40-95%
Pseudomonas aeruginosa [2]; alveolar macrophages from non-COPD subjects
  bacterial clearance: significantly enhanced bacterial clearance
Pseudomonas aeruginosa [2]; cell-free medium with sulforaphane alone
  bactericidal activity towards Pseudomonas aeruginosa: no bactericidal activity
Pseudomonas aeruginosa [3]
  bacterial phagocytic ability and clearance: increased bacterial phagocytic ability and clearance

Source: US20130039928A1, “COMPOSITIONS AND METHODS FOR REVERSING CORTICOSTEROID RESISTANCE OR TREATING RESPIRATORY INFECTIONS” (priority 2010, published 2013)
